Data reported in ChEMBL document CHEMBL1201862, “PubChem BioAssay data set” (2004).
“And” between values parts separate entries of the source, which are not always exact repeats. Identical values can stand only once. The source made the active and inactive calls.

Assays:
Cytochrome P450 2C9 = Cytochrome P450 2C9 (Homo sapiens, UniProt P11712)
Cytochrome P450 1A2 = target: T1, Cytochrome P450 1A2 (Homo sapiens, UniProt P05177);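 further: PubChem cytochrome P450 panel assay, CYP1A2 panel member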
T1 sequence (P05177 whole entry): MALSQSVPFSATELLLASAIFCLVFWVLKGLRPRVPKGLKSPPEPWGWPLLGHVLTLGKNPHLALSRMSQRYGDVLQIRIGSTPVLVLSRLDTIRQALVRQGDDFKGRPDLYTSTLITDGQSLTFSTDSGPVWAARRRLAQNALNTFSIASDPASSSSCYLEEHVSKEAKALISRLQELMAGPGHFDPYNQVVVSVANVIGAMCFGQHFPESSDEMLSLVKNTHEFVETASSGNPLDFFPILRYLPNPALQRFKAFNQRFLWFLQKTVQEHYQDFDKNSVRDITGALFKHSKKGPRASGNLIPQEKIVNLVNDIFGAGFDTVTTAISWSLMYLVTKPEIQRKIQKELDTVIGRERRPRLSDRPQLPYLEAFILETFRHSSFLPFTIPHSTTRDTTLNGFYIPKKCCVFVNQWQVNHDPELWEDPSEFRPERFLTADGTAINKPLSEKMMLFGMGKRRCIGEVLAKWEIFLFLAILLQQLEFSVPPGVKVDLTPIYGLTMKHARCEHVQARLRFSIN

[1] = cytotoxicity in HEK-293T cells, dose response, cytotoxicity control for TCR NF-kB inhibitor project, luminescence, T-cell screen hits (AID 489026); assay type: functional, cell-based;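 further: cells exposed to compound about 14 hours before the viability readout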
Paired box protein Pax-8 = Paired box protein Pax-8 (Homo sapiens, UniProt Q06710); assay: inhibitors of PAX8-driven TPO luciferase reporter, dose response, RMG-I cells, cherry-pick (AID 687027); assay type: functional, cell-based;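 further: luciferase reporter driven by Pax8 target thyroperoxidase promoter measured by SteadyGlo luminescence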
[2] = target: T2, Calpain-2 catalytic subunit (Sus scrofa, UniProt P43367); assay: pig calpain II inhibitor potency, dose response, biochemical, fluorogenic peptide substrate (AID 1420); assay type: functional
T2 sequence (P43367 whole entry): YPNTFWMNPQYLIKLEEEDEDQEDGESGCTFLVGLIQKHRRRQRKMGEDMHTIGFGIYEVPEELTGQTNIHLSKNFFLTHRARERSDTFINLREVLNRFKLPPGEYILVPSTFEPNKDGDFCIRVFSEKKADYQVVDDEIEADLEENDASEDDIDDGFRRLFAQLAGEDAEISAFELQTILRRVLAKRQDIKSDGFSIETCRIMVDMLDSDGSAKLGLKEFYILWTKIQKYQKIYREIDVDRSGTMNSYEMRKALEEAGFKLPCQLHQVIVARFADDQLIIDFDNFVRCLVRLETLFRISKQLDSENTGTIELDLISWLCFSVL

[3] = target: T3, Polyadenylate-binding protein 1 (Homo sapiens, UniProt P11940); assay: PABP1 MLLE–PAM2 interaction inhibitors, dose response, miRNA deadenylation inhibitor project, biochemical, fluorescence polarization, Cy5-PAM2 peptide, secondary (AID 602260); assay type: functional; settings: read-out: IC50_Mean
[4] = target: T3, Polyadenylate-binding protein 1; assay: PABP1 MLLE–PAM2 binding inhibitor potency, dose response, biochemical, fluorescence polarization, FITC-PAM2 peptide (AID 602259); assay type: functional; settings: read-out: IC50_Mean
Protein skinhead-1 = target: T4, Protein skinhead-1 (Caenorhabditis elegans, UniProt P34707); assay type: functional
T4 sequence (P34707 whole entry): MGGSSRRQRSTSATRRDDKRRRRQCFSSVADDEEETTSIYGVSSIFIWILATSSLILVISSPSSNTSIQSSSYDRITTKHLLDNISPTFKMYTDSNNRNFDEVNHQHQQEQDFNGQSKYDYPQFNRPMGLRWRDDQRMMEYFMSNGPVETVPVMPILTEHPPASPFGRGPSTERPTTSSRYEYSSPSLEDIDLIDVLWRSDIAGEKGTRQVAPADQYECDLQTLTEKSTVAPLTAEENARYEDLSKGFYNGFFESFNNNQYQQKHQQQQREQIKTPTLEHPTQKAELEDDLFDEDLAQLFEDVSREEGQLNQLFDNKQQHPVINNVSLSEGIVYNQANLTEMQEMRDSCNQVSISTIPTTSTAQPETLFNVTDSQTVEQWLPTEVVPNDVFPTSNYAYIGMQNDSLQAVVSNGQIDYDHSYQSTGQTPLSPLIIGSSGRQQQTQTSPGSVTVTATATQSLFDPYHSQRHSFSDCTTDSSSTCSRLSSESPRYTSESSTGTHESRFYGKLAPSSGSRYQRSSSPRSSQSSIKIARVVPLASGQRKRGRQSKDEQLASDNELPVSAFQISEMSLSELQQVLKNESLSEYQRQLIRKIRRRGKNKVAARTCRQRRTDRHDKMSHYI

[5] = target: Heat shock protein HSP 90-alpha (Homo sapiens, UniProt P07900); assay type: functional, organism-based
[6] = target: T5, Short transient receptor potential channel 4 (Mus musculus, UniProt Q9QUQ5); assay: mouse TRPC4 channel inhibitors, dose response, cell-based, HEK293 TRPC4/mu-opioid, Fluo-4 calcium (AID 434942); assay type: functional;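 further: potency of inhibitors blocking the TRPC4 calcium response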
T5 sequence (Q9QUQ5 whole entry): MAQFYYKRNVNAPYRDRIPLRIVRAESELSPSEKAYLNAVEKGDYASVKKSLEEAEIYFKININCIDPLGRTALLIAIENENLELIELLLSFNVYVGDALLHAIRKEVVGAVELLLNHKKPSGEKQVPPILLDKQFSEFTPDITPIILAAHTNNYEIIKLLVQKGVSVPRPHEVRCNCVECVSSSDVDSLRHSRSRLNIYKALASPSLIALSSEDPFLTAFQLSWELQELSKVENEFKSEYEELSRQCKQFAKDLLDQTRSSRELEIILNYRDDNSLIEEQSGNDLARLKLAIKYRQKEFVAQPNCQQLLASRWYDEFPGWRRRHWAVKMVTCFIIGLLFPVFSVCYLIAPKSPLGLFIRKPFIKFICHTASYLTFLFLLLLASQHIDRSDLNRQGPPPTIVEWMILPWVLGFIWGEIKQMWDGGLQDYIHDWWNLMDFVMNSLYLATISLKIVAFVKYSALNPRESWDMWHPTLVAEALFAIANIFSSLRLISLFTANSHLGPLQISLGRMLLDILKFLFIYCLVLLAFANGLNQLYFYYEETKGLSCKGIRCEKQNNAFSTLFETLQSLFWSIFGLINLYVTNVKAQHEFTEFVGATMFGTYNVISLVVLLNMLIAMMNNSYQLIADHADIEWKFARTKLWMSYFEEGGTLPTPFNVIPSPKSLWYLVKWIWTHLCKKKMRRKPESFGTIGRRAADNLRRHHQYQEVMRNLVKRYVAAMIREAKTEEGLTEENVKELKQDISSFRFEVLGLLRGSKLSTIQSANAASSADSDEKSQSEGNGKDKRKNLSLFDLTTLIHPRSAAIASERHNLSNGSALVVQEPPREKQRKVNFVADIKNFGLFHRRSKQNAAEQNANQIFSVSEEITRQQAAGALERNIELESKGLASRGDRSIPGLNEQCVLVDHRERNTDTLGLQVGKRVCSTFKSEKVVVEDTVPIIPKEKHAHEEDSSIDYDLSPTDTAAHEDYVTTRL

[7] = Luminescence Cell-Based Dose Response HTS to Identify Inhibitors of 5'UTR Stem-Loop Driven Prion Protein mRNA Translation in H4 Neuroglioblastoma Cells. [Related pubchem assays: 1827 (Project Summary), 1813 (Primary HTS)]; assay type: functional
[8] = inhibitors of firefly luciferase expression or activity, dose response, H4 neuroglioma cells, luminescence (AID 1990); assay type: functional, cell-based
[9] = Luminescence Cell-Based Dose Retest to Confirm Inhibitors of Cancer Stem Cells. [Related pubchem assays (depositor defined):AID2717, AID2721]; assay type: functional; settings: Homo sapiens
[10] = inhibitors of SNCA 5'UTR-driven reporter translation, confirmation, H4 neuroglioma cells, luminescence (AID 1988); assay type: functional, cell-based
Cytochrome P450 2C19 = Cytochrome P450 2C19 (Homo sapiens, UniProt P33261); assay: Cytochrome panel assay with activity outcomes. Panel member name: p450-cyp2c19 Compounds with AC50 equal or less than 10 uM are considered active; assay type: functional
cells = assay type: functional
[11] = Vero E6 cell cytotoxicity, dose response, cytotoxicity control for non-replicating M. tuberculosis project, secondary assay (AID 492998); assay type: functional, VeroE6; settings: Vero C1008
[12] = THP-1 cell cytotoxicity, dose response, cytotoxicity control for non-replicating M. tuberculosis project (AID 489025); assay type: functional
[13] = Luminescence Cell-Based Dose Confirmation HTS to Identify Inhibitors of Platelet Dense Granule Release. [Related pubchem assays: 1663 (Primary HTS), 1678 (Summary of Project)]; assay type: functional
[14] = target: Luciferin 4-monooxygenase (Photinus pyralis, UniProt P08659); assay: firefly luciferase enzyme inhibitors, dose response, biochemical, luminescence (AID 1891)
INS1 = assay: beta cell apoptosis inhibitors, cytokine rescue, dose response, luminescence, retest (AID 449756); assay type: functional, cell-based; settings: Rattus norvegicus;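 further: cell death triggered by IL-1 beta plus TNF-alpha plus IFN-gamma mixture; protective hits raise ATP signal compared with cytokine alone wells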
[15] = MC4R antagonists, dose response, counter-screen for LGR2 antagonist project, cell-based, plate reader, cherry pick (AID 743444); assay type: functional;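 further: transfected HEK 293 cells stimulated with alpha-MSH peptide; potency of inhibitors of the alpha-MSH evoked signal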
[16] = HepG2 cell cytotoxicity, dose response, cytotoxicity control, plate reader, cherry-pick, antagonist series (AID 743416); assay type: functional, cell-based
Vero = assay: cells; assay type: functional; settings: Chlorocebus sabaeus
[17] = LGR2 antagonists, dose response, cell-based, HEK293, CRE-luciferase reporter, cherry pick, set 2 (AID 743343); assay type: functional;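 further: transfected cells were stimulated with diluted bursicon conditioned medium after compound addition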
[18] = A549 cell cytotoxicity, dose response, cytotoxicity control, plate reader, cherry-pick, antagonist series (AID 743412); assay type: functional, cell-based
[19] = HEK293 cell cytotoxicity, dose response, cytotoxicity control, plate reader, cherry-picked samples (AID 743446); assay type: functional, cell-based
[20] = Shn3 3'UTR reporter inhibitors, dose response, cell-based, Clone20 osteoblasts, firefly luciferase, cherry-picked (AID 624132); assay type: functional;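 further: firefly luciferase luminescence from reporter carrying the Shn3 3'UTR in osteoblasts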
[21] = HEp-2 cell cytotoxicity, dose response, cytotoxicity control for RSV inhibitor project, HTS (AID 2410); assay type: functional; settings: human respiratory syncytial virus
Cytochrome P450 2D6 = Cytochrome P450 2D6 (Homo sapiens, UniProt P10635);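 further: CYP2D6 member of a cytochrome P450 panel assay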
Chain of Cytochrome P450 2D6 (P10635 whole entry): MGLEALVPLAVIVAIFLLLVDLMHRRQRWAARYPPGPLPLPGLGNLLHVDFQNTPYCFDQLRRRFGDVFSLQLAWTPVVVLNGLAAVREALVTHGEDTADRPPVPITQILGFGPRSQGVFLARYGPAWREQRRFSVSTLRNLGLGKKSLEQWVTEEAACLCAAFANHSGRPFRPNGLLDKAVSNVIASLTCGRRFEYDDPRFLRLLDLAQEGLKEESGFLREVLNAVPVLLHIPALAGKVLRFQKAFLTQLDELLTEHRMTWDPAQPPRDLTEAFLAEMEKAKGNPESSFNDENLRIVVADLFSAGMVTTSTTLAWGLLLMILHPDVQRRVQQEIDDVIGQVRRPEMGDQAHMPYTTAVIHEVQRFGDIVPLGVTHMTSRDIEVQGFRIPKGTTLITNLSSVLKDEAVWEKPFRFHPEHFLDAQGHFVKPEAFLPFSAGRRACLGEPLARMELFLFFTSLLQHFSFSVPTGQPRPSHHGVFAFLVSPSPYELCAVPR

Chain of Cytochrome P450 2C9 (P11712 whole entry): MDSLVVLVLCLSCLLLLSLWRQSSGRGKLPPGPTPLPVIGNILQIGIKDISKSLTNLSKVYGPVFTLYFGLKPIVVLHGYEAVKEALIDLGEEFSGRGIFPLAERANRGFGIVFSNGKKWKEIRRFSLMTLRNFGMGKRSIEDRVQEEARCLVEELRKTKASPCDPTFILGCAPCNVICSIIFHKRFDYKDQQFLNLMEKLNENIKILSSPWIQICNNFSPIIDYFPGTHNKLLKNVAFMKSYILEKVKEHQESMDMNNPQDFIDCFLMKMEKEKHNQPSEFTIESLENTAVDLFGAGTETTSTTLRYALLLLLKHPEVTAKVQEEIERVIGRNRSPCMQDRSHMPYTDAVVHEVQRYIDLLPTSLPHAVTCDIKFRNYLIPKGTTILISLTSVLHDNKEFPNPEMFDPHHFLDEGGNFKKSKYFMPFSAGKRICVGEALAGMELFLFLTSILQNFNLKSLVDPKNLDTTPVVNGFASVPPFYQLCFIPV
T3 sequence (P11940 whole entry): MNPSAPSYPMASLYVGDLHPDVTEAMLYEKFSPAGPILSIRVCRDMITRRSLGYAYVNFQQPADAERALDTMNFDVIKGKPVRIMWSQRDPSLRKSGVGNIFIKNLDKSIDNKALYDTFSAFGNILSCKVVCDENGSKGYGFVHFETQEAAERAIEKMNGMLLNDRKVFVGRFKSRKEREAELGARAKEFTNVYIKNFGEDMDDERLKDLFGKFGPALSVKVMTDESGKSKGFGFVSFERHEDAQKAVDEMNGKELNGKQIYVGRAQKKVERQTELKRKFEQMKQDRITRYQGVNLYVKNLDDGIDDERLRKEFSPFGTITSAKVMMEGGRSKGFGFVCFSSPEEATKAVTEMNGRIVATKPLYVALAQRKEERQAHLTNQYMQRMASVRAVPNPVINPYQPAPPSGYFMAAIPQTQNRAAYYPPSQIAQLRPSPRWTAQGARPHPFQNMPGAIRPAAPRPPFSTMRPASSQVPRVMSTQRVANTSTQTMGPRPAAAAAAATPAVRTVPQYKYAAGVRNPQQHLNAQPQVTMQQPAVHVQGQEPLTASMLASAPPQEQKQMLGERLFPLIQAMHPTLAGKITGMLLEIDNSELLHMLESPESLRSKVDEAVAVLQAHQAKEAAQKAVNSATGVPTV
Chain of Cytochrome P450 2C19 (P33261 whole entry): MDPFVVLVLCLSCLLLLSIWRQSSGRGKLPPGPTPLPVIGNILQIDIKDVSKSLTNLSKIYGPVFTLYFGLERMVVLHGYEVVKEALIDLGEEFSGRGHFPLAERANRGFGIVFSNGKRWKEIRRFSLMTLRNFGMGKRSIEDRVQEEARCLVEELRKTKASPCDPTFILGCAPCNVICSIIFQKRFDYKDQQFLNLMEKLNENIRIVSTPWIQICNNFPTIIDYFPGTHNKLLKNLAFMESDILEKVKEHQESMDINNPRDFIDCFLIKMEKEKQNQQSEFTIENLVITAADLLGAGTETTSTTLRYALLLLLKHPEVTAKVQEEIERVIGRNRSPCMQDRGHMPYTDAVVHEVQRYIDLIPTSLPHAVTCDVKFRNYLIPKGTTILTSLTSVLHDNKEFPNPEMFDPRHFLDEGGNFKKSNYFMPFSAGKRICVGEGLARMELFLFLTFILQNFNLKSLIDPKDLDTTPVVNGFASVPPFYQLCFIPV
Chain of Luciferin 4-monooxygenase (P08659 whole entry): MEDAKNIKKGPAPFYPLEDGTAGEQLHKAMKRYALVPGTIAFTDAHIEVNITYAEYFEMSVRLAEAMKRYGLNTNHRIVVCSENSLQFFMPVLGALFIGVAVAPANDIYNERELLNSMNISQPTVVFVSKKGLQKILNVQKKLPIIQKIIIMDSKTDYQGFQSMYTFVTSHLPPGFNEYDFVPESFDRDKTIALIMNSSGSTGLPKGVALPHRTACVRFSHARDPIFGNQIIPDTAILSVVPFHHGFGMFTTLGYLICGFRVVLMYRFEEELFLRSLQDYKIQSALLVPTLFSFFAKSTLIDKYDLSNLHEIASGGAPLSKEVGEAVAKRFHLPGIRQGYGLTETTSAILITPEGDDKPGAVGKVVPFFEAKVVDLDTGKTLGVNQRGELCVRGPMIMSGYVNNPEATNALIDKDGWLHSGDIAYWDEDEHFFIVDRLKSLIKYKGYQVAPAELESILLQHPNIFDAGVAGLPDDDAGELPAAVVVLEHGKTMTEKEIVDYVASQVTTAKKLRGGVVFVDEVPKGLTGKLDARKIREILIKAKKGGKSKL
Chain of Paired box protein Pax-8 (Q06710 whole entry): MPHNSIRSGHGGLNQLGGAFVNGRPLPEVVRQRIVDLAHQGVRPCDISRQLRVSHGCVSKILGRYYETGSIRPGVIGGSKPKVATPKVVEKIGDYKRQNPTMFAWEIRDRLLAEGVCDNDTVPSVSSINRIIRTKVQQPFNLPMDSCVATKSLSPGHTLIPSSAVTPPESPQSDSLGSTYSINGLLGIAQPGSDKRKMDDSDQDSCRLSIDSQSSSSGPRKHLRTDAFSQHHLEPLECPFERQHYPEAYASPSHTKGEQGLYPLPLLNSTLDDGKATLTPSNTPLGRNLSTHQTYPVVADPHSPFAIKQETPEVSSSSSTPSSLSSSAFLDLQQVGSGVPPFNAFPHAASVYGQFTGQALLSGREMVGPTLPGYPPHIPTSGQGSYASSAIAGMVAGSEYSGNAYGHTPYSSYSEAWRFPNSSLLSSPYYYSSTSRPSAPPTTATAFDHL

Cc1ccccc1C(=O)Nc1ccc(N2CCOCC2)nc1
AC50 (Cytochrome P450 2C9): inconclusive
AC50 (Cytochrome P450 1A2): 17.8 µM (inconclusive)

Cc1ccc(C(=O)c2cc([N+](=O)[O-])ccc2N2CCCCC2)c(C)c1
IC50 [1]: > 80 µM (inactive)
AC50 (Paired box protein Pax-8): 0.929 µM (active)

Cc1c(C#N)c(=O)oc2ccc3ccccc3c12
AC50 (Cytochrome P450 2C9): inconclusive

CCc1ccc(CNCc2cccnc2)cc1
IC50 [2]: 0.454 µM (not active)

O=C(CNC(=O)C12CC3CC(CC(C3)C1)C2)NC1=NCCS1
IC50 [3]: > 66 µM (inactive)
IC50 [4]: > 66 µM (inactive)

CCOC(=O)C(CSCC(=O)c1ccc(Cl)cc1Cl)NC(=O)OC(C)(C)C (configuration not stated)
IC50 [3]: > 66 µM (inactive)
IC50 [4]: > 66 µM (inactive)
IC50 (Protein skinhead-1): > 100 µM (inactive)

Cc1ccc(-c2nc3cccnc3s2)cc1NS(=O)(=O)c1ccc2c(c1)OCCO2
AC50 [5]: 2.9 µM (active)

CCOC(=O)c1c(NC(=O)C2CC(Cl)=CCC2C(=O)O)sc2c1CCCCC2 (configuration not stated)
EC50 [6]: 6.68 µM (active)

CC[n+]1c(/C=C(/C)SC)sc2ccccc21
IC50 [3]: > 66 µM (inactive)
IC50 [4]: > 66 µM (inactive)

COC(=O)Nc1ccc(S(=O)(=O)N2CCCc3ccccc32)cc1
IC50 [1]: > 80 µM (inactive)
EC50 [7]: 7.32 µM (active)
EC50 [8]: 8.02 µM (active)
AC50 [9]: 0.362 µM (active)
EC50 [10]: 0.37 µM (active)

Cc1cc(SC(C)C(=O)Nc2c(C)n(C)n(-c3ccccc3)c2=O)nc2ccccc12 (configuration not stated)
AC50 (Cytochrome P450 2C19; read-out: AC50): 11.2 µM (inconclusive)
AC50 (Cytochrome P450 2C9): inconclusive

O=C(NC(=S)NCCC1=CCCCC1)c1ccccc1Br
IC50 [3]: > 66 µM (inactive)
IC50 [4]: > 66 µM (inactive)

CN(Cc1ccccc1)C(=O)c1ccc([N+](=O)[O-])o1
IC50 (cells): 0.36 µM (active)
CC50 [11]: 19.4 µM (active)
CC50 [12]: > 40 µM (active)

O=C(NN1C(=O)c2ccccc2NC1c1ccco1)c1ccc([N+](=O)[O-])cc1 (configuration not stated)
IC50 [2]: 10.6 µM (not active)

Cc1cc(C)c2c(N=NN3CCOCC3)[nH]nc2n1
EC50 [13]: > 112 µM (not active)
AC50 [5]: 4.4 µM (active)
EC50 [14]: > 112 µM (not active)

Cc1cc(NC(=O)c2ccccc2Cl)c(C(C)C)cc1O
AC50 (Cytochrome P450 2C9): inconclusive

Cc1ccc2nc(NC(=O)c3ccccn3)sc2c1
AC50 (INS1): 2.19 µM (active)
AC50 [15]: 0.582 µM (active)
IC50 (cells): 0.63 µM (active)
CC50 [11]: 7.23 µM (active)
CC50 [12]: 10.7 µM (active)
AC50 [16]: 9.65 µM (active)
CC50 (Vero): 11.3 µM (active)
AC50 [17]: 0.737 µM (active)
AC50 [18]: 4.99 µM (active)
AC50 [19]: 14 µM (active)

COC(=O)c1cn(NC(=O)c2cc([N+](=O)[O-])ccc2F)c(=O)c2ccccc12
IC50 [1]: > 80 µM (inactive)
AC50 [20]: 2.85 µM (active)
CC50 [21]: 3.87 µM (active)

Cc1ccccc1C(=O)NC1CC2CCC(C1)N2Cc1ccccc1 (configuration not stated)
EC50 [6]: 0.188 µM (active)

Cc1c(Cl)c(S(N)(=O)=O)cc2c1N=CNS2(=O)=O
AC50 (Cytochrome P450 2D6): 3.98 µM (inconclusive)
AC50 (Cytochrome P450 2C9): inconclusive

COc1ccc(/C=N/NC(=O)C2c3ccccc3Oc3ccccc32)c(OC)c1
IC50 [2]: 10.9 µM (not active)

CN(C)CCCN1c2ccccc2CCc2ccc(Cl)cc21 [CLOMIPRAMINE]
AC50 (Cytochrome P450 2C19): inactive
AC50 (Cytochrome P450 2C9): inactive
AC50 (Cytochrome P450 1A2): 15.8 µM (active) and 5.01 µM (active) and 20 µM (inconclusive)
